pIC50: −log10 of the molar value. “Also recorded” adds a separate entry of the source.
Columns and labels:
endogenous MYB = test: 5×MRE-luciferase reporter assay in Jurkat cells; type: cell-based; details: Homo sapiens, 5×MRE firefly luciferase, 18 hours, normalized to DMSO
Method: (§1) An assay using a 5×Myb-response element (MRE)-luciferase construct was used to evaluate the compounds' ability to bind MYB and/or disrupt the MYB-NFIB interaction. The 5×MRE reporter was conducted in both HEK293T cells and Jurkat cells, and for the HEK293T system a transient transfection of plasmid vectors expressing either MYB or MYB-NFIB, and a plasmid containing the 5×MRE promoter sequence cloned upstream of Firefly luciferase were used. For the Jurkat system, the reporter was driven by endogenous MYB, and the 5×MRE construct was transiently transfected. Cells were treated with two different high concentrations of each compound (10 and 20 µM) and the luciferase activity was measured 18 hours post-treatment. Individual wells were normalized for viability (cell count) using the Cyto-tox One assay (Promega).
Jurkat cells were reverse transfected at a density of 40,000 cells/well at the time of plating with a plasmid encoding 5×MRE reporter construct driving firefly luciferase expression. 4 hours following transfection, the compound analogs were added using a Tecan transfer tool to the wells. The plate was incubated for 18 hours, and then firefly luciferase signal was measured using promega Steady-glo luciferase assay system according to the manufacturer's protocols. The signal was normalized to control wells which were treated with DMSO vehicle.

Jurkat = test: Cell Titer Glo viability assay, Jurkat; type: cell-based; details: Homo sapiens, read-out: IC50 Cell Titer Glow Viability Jurkat
c-Myb = test: 5×MRE-luciferase reporter assay in HEK293T cells; type: cell-based; details: Homo sapiens, HEK-293T; c-Myb plus 5×MRE firefly luciferase transfected, 18 hours, normalized to DMSO
Method: as §1
HEK293T cells were plated at a density of 7500 cells/well in a 384-well plate. The following day, the cells were transfected with plasmids encoding 1)c-Myb under control of a CMV promoter, 2) 5×MRE reporter construct driving firefly luciferase expression in a 1:2 ratio. 4 hours following transfection, compound analogs were added using a Tecan transfer tool to the wells. The plate was incubated for 18 hours, and then firefly luciferase signal measured using promega Dual-Glo luciferase assay system according to the manufacturer's protocols. The signal was normalized to control wells which were treated with DMSO vehicle.

MYB-NFIB fusion protein = test: Initial binding studies, MYB-NFIB
Method: (§2) Next, analogues of KI-TM1-001 were prepared and evaluated. Compounds of Formula (I) may be prepared using the synthetic schemes and procedures described in detail below.

APL line NB4 = test: PRISM cell profiling, NB4; type: cell-based; details: PRISM data set
Source text: (§3) Efforts have also included assessment of impact on viable cell growth using traditional luminescent cell viability assays (e.g., CellTiter-Glo™ or GTG) and high-throughput profiling in barcoded and pooled cancer cell lines. Collaboration with the Broad Institute's PRISM cell profiling platform provided the ability to survey sensitivity to KI-TM-001 against 800 cancer cell lines representing a broad spectrum of lineages, including 300 suspension lines and 500 adherent lines.
(§4) Roughly 650 of the lines passed quality control analyses. […] The CTG assay is well established has been used to survey viability of cell lines used routinely in the lab, noting a separation between solid tumor lines and hematopoetic lineages (FIG. 3B).

endogenous Myb protein = test: Molt4-5×MRE-FLuc reporter assay; type: cell-based; details: 4 hours, One-Glo, normalized to DMSO; read-out: IC50 Molt4-5xMRE-FLuc Reporter
Method: Molt4 cells were stably transduced with a lentiviral construct encoding a 5×MRE Myb-responsive promoter driving firefly luciferase expression. The reporter output is controlled by the levels/activity of endogenous Myb protein in the Molt4 cell line.
Molt4-5×MRE-FLuc cells were plated at a density of 10000 cells/well in 25 uL of media in a 384-well plate. Compound analogs were added using a Tecan transfer tool to the wells. The plate was incubated for 4 hours, and then firefly luciferase signal measured using promega One-Glo luciferase assay system according to the manufacturer's protocols. The signal was normalized to control wells which were treated with DMSO vehicle.

MYB [1] = target: T1, MYB (Homo sapiens, UniProt P10242); test: MYB protein levels in MOLT4 and Jurkat cells; type: cell-based; set-up: endogenous in cells; host or cells: MOLT4 and Jurkat cells
Method: FIG. 2 is a plot showing a dose curve of KI-TM-001, and its effect on MYB protein levels in Molt4 at the 6 hour timepoint.
(§5) In-cell bioluminescence resonance energy transfer (BRET) assays were developed to assess the influence of the compounds on MYB-p300 and MYB-TAF12 interactions (FIG. 1A). […] The ability of KI-TM-001 to modulate MYB protein and transcript levels in MOLT4 and Jurkat cells was also evaluated. […] Degradation appears to be proteasome-dependent as MYB can be rescued by treatment with the proteasome inhibitor MG132.
Target sequence in this assay (P10242 whole entry): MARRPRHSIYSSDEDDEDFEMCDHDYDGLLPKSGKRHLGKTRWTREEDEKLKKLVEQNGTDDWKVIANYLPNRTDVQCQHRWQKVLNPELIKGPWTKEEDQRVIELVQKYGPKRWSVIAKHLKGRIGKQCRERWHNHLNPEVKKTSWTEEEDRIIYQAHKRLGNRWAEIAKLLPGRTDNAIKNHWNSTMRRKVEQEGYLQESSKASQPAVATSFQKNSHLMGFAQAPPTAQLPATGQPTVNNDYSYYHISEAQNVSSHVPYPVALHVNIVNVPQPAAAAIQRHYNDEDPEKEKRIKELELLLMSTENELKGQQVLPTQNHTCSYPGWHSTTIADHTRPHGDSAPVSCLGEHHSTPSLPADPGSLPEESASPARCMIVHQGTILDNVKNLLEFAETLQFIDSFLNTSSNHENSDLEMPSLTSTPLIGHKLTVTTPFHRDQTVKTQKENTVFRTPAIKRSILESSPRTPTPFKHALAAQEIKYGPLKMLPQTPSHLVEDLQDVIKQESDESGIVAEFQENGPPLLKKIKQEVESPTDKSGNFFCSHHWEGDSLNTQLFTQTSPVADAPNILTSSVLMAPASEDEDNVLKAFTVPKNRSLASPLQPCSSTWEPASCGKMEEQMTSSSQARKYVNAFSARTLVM

[2] = system: MM1.S, a multiple myeloma line; test: Cell Titer Glo assay, MM1.S; type: cell-based; details: Homo sapiens, FIG. 3B
Source text: FIG. 3B is a plot showing Cell Titer Glo assay results for KI-TM-001 in several hematopoietic lines versus prostate and ovarian cell lines.
as §3, §4

Molt4-5×MRE-FLuc cells = test: Cell-Titer Glo viability assay, Molt4-5×MRE-FLuc cells; type: cell-based; details: 4 hours; read-out: IC50 Cell Titer Glo Molt4-5xMRE-FLuc Viability
Method: Molt4-5×MRE-FLuc cells were plated at a density of 10000 cells/well in 25 uL of media in a 384-well plate. The following day, compound analogs were added using a Tecan transfer tool. The plates were incubated for 4 hours, and then the viability was measured using promega Cell-titer glo assay according to the manufacturer's protocols.

MYB-TAF12 interaction = target: T2, MYB-TAF12 interaction (Homo sapiens, UniProt P10242); test: In-cell BRET protein-protein interaction assay; type: cell-based; details: FIG. 1B, read-out: IC50 for blocking the MYB-TAF12 interaction
T2 construct: BRET donor or acceptor fusion (which one is not specified); expressed in transfected cells
Method: as §5

800 cancer cell lines = test: PRISM cell profiling in barcoded and pooled cancer cell lines; type: cell-based
Source text: as §3, §4

MYB [3] = target: T1, MYB; test: Initial binding studies, MYB
Method: as §2
Target sequence in this assay (P10242 whole entry, species assumed): as the sequence (P10242 whole entry) above

T2 sequence (P10242 whole entry, the tested form may be a part): as the sequence (P10242 whole entry) above

Row | pIC50 (Jurkat) | Structure (SMILES) | pIC50 (endogenous MYB) | pIC50 (c-Myb) | also measured
1 | < 4.52 | Cc1cc(NCCCNCc2cccc(N3CCCC3)c2)nc(N)n1 [drawing 243] | 5.07 | – | –
2 | < 4.52 | Cc1cc(N2CCC(NCc3ccc(N4CCCC4)cc3)CC2)nc(N)n1 [drawing 233] | 4.76 | < 4.40 | –
3 | < 4.52 | Cc1cc(N2CCC(NCc3cccc(N(C)C)c3)CC2)nc(N)n1 [drawing 237] | < 4.40 | < 4.40 | –
4 | 5.36 | Cc1cc(N2CCC[C@@H](NCc3cccc(N4CCCC4)c3)C2)nc(N)n1 [drawing 241] | 5.65 | – | –
5 | < 4.52 | COc1cccc(CNC2CCN(c3cc(C)nc(N)n3)CC2)c1 [drawing 238] | 4.52 | < 4.40 | –
6 | – | Cc1cc(N2CCC(NCc3cccc(C(C)(C)C)c3)CC2)nc(N)n1 [drawing 245] | – | < 4.52 | –
7 | 4.95 | Cc1cc(N2CCC(NCc3cccc(N4CCCCC4)c3)CC2)nc(N)n1 [drawing 235] | 5.38 | 4.60 | –
8 | < 4.52 | Cc1cc(N2CCC(NCc3ccccc3)CC2)nc(N)n1 | 4.59 | < 4.40 | –
9 | 5.49 | Cc1cc(N2CCC(NCc3cccc(N4CCCC4)c3)CC2)nc(N)n1 [drawing 228] | 5.46 | 4.80 | –
10 | – | Cc1cc(N2CCC(NCc3cccc(N4CCCC4)c3)CC2)ncn1 [drawing 244] | – | < 4.52 | –
11 | < 4.52 | Cc1cc(N2CCC(NC(=O)c3cccc(N4CCCC4)c3)CC2)nc(N)n1 [drawing 234] | 4.95 | < 4.40 | –
12 | – | Cc1cc(N2CCC(NCc3cccc(N4CCCC4)c3)CC2)nc(N)n1 [KI-TM1-001, 4-Methyl-6-(4-((3-(pyrrolidin-1-yl)benzyl)amino)piperidin-1-yl)pyrimidin-2-amine] | – | – | binding to MYB-NFIB fusion protein (MYB-NFIB fusion protein): binds; pIC50 (APL line NB4): 6.68; pIC50 (endogenous Myb protein): 4.87; time to impact on MYB protein levels (MYB [1]; MOLT4 and Jurkat cells): ≤ 2 h; mechanism of MYB degradation (MYB [1]; MYB rescued by the proteasome inhibitor MG132): proteasome-dependent; effect on MYB protein levels (MYB [1]; different cell lines (MOLT4, Jurkat), FIG. 1C-E, FIG. 2, listed as KI-TM-001): dose-dependent reduction of MYB protein; also recorded: dose-dependent manner; GI50 [2]: 2.01 µM; pIC50 (Molt4-5×MRE-FLuc cells): < 4.40; pIC50 (MYB-TAF12 interaction): 5.15; pIC50 (800 cancer cell lines; PRISM data set, read-out: IC50 in a number of hematopoietic lines): > 6.00; lineages most impacted / lineage enrichment (median AUC versus lineage) (800 cancer cell lines; PRISM, roughly 650 lines passed quality control, FIG. 3A, listed as KI-TM-001): rhabdomysosarcoma, multiple myeloma, lymphoma, and leukemia; also recorded: mild enrichment for leukemia, lymphoma, multiple myeloma and rhabdomyosarcoma (RMS) cell lines; binding to MYB (MYB [3]): binds
13 | – | CCN(CC)c1ccc(CNC2CCN(c3cc(C)nc(N)n3)CC2)cc1 [drawing 246] | – | < 4.52 | –
14 | < 4.52 | Cc1cc(N2CCC(N(Cc3cccc(N4CCCC4)c3)C(=O)NC(C)C)CC2)nc(N)n1 [drawing 230] | 4.58 | – | –
15 | < 4.52 | Cc1cc(N2CCC(NCc3cccc(-n4ccnc4)c3)CC2)nc(N)n1 [drawing 240] | 4.59 | < 4.40 | –
16 | < 4.52 | Cc1cc(N2CCC(NCc3cccc(-n4cccn4)c3)CC2)nc(N)n1 | 4.51 | < 4.40 | –
17 | – | Cc1cc(N2CCC[C@H](NCc3cccc(N4CCCC4)c3)C2)nc(N)n1 [KI-TM1-016S, (S)-4-Methyl-6-(3-((3-(pyrrolidin-1-yl)benzyl)amino)piperidin-1-yl)pyrimidin-2-amine] | – | – | pIC50 (endogenous Myb protein): 4.65; pIC50 (Molt4-5×MRE-FLuc cells): < 4.40
18 | – | Cc1cc(N2CCC(NCc3ccccc3N3CCCC3)CC2)nc(N)n1 [KI-TM1-006, 4-methyl-6-(4-((2-(pyrrolidin-1-yl)benzyl)amino)piperidin-1-yl)pyrimidin-2-amine] | – | – | pIC50 (endogenous Myb protein): < 4.40; pIC50 (Molt4-5×MRE-FLuc cells): < 4.40
19 | 4.67 | Cc1cc(N2CCC(NCc3cccc(-n4cccc4)c3)CC2)nc(N)n1 [drawing 236] | 4.92 | 4.83 | –
20 | – | Cc1cc(N2CCC[C@@H](NCc3cccc(N4CCCC4)c3)C2)nc(N)n1 [KI-TM1-016R, (R)-4-Methyl-6-(3-((3-(pyrrolidin-1-yl)benzyl)amino)piperidin-1-yl)pyrimidin-2-amine] | – | – | pIC50 (endogenous Myb protein): < 4.40; pIC50 (Molt4-5×MRE-FLuc cells): < 4.40
21 | – | Cc1cc(N2CCC(NCc3cccc(-n4cccc4)c3)CC2)nc(N)n1 [KI-TM1-010, 4-(4-((3-(1H-pyrrol-1-yl)benzyl)amino)piperidin-1-yl)-6-methylpyrimidin-2-amine] | – | – | pIC50 (endogenous Myb protein): 4.67; pIC50 (Molt4-5×MRE-FLuc cells): < 4.40
22 | < 4.52 | CC(=O)N(Cc1cccc(N2CCCC2)c1)C1CCN(c2cc(C)nc(N)n2)CC1 [drawing 231] | 4.96 | – | –
23 | – | Cc1cnc(N)nc1N1CCC(NCc2cccc(N3CCCC3)c2)CC1 [KI-TM1-036, 5-Methyl-4-(4-((3-(pyrrolidin-1-yl)benzyl)amino)piperidin-1-yl)pyrimidin-2-amine] | – | – | pIC50 (endogenous Myb protein): 4.60; pIC50 (Molt4-5×MRE-FLuc cells): < 4.40
24 | < 4.52 | Cc1cc(N2CCC(NCc3ccccc3N3CCCC3)CC2)nc(N)n1 [drawing 232] | 5.51 | < 4.40 | –
25 | 4.71 | Cc1cc(N2CCC[C@H](NCc3cccc(N4CCCC4)c3)C2)nc(N)n1 [drawing 242] | 5.09 | – | –

Reference: patent US20230303512A1, “MODULATORS OF MYB-MEDIATED TRANSCRIPTION AND USES THEREOF” (Massachusetts Institute of Technology, priority 2020, published 2023)
